# Assays:
# Type in all cases: biochemical
# MYC = assay: In vitro transcription-translation (IVTT) assay, MYC reporter; details: HeLa S3 lysate, 2 hrs at 30° C.
# Procedure, shortened: (§1)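 Reporter: mCherry, P2A, then 3×FLAG-target peptide-sfGFP fusion, IRES-initiated; HeLa S3 lysate IVTT; cpd dilutions 30 μM−0.1 μM half-log in 100% DMSO (dilution-plate conc); DNA added last; 2 h, 30° C; PBS quench.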
# CCNE1 = assay: In vitro transcription-translation (IVTT) assay, CCNE1 reporter; details: HeLa S3 lysate, 2 hrs at 30° C.
# Protocol: (§2) Each preparation takes 8 cell pellets (4 ml packed volume each, approximately 1.0×10^9 cells per pellet). Thaw cell pellets from −80° C. on ice for 90 mins. Lay pellets horizontally on top of the ice and rotate every 30 mins to ensure even thawing. Once thawed, add 4 mL of cold lysis buffer to each pellet, and using a serological pipet, gently pipet up and down to break up clumps. Incubate resuspended cells in ice for an additional 30 mins (plunged into ice). During 30 min incubation, rinse and RNase-zap (Ambion) glass dounces (use loose pestle “A”), gently dry and place on ice until needed. Prepare RNase-free Eppendorf tubes for spinning and for batch storage. Add batch labels to 1.5-1.7 mL RNase-free microcentrifuge tubes (labeling scheme below). Each batch will have an extra 1.5-1.7 mL RNase-free microcentrifuge tube for 40 μL of lysate, label the top of this tube (labeling scheme below). After 30 min incubation, transfer all 8 mL of cell pellet to dounce. Cell lysis is complete after douncing 100 times. Aliquot cell lysis into 1.5-1.7 mL temporary-microcentrifuge tubes. Place tubes in centrifuge with “fins” out, and spin at 1,200×g for 5 mins. After the first spin use a 1 mL pipet to resuspend each tube and repeat spin. This acts as an additional lysis step, is more vigorous and increases lysate yield. During second spin get liquid N2 and a fresh conical tube on ice. After spin is complete, transfer supernatant (lysate) from microcentrifuge tubes into the 50 mL conical tube and keep on ice. Repeat steps 10-14 for all other cell pellets until completed. Once all cell lysate has been transferred to the 50 mL conical tube pipet to mix so the solution is homogenous. Transfer 1 mL of lysate into batch-labeled microcentrifuge tubes and flash freeze in liquid nitrogen. Be sure to pipet up and down to mix throughout transfer step. Place all tubes in the […] for long-term storage.
# In vitro transcription-translation assay setup: Each assay includes a master mix containing lysate and shared components, a 96-well plate containing compound titrations for testing, a 96-well DNA plate with reporter constructs to be tested, 96-well skirted PCR plates, and 96-well flat-bottom, black, fluorescent assay plates. Reaction materials setup: (A) Master mix—15 mL conical tube (3 mL of HeLa S3 Lysate described above; 0.6 mL of ThermoFisher Accessory Proteins (#88882); 1.2 ml of ThermoFisher Reaction Mix (#88882); 0.54 mL of nuclease-free Water); (B) 96-Well Master Mix+Compound Plate (Half-log dilutions (30 μM−0.1 μM) of 4 compounds of interest are prepared in 100% DMSO); 96-Well DNA Plate (Five DNA constructs are plated into single columns within the plate. Row 1 of the column contains nuclease free H2O, all other wells contain 110 ng/μL plasmid DNA). Reactions are started by mixing 155 μL of master mix and 3.5 μL of compound serial dilutions, then 9.1 μL of master mix+compound mixture is aliquoted across 5 96-well plates. Reactions begin with final addition of 2 μL of DNA for a 11.1 μL reaction volume in each well. The entire plate is sealed, and incubated for 2 hrs at 30° C. After 2 hrs, quench the assay using 45 μL of PBS, and transfer 50 μL to a flat-bottom black microplate Quantify the sfGFP and mCherry signals from each well on each plate, taking 3 reads of each plate, and perform data analysis below.
# In vitro transcription-translation assay data analysis: Each plate is read three times in channels for both sfGFP and mCherry signals. The average signal across these 3 reads is then calculated for further analysis. Control wells containing no DNA reporter are subtracted from reporter wells in the same column to remove auto-fluorescence of the lysate. Then, the ratio of sfGFP/mCherry is calculated per well, and these ratios are averaged across the triplicate experiments on the same plate. Finally, the ratio of each titration concentration is normalized to the no drug control to create the normalized stalling metric. […]
# CCNTB1 = assay: In vitro transcription-translation (IVTT) assay, CCNTB1 reporter; details: HeLa S3 lysate, 2 hrs at 30° C.
# Procedure, shortened: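 HeLa S3 lysate-based coupled transcription-translation reactions with reporter plasmids, compounds in half-log dilutions (30 μM−0.1 μM, in DMSO), 2 h at 30° C. sfGFP/mCherry ratio, corrected for no-DNA background, normalized to no-drug control and fitted for IC50.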
# CCND1 = assay: In vitro transcription-translation (IVTT) assay, CCND1 reporter; details: HeLa S3 lysate, 2 hrs at 30° C.
# Procedure, shortened: as §1
# KRAS G12D = assay: In vitro transcription-translation (IVTT) assay, KRAS G12D reporter; details: HeLa S3 lysate, sfGFP/mCherry ratio, 2 hrs at 30° C.
# Procedure, shortened: as §1
# MCL-1 = assay: In vitro transcription-translation (IVTT) assay, MCL-1 reporter; details: HeLa S3 lysate, sfGFP/mCherry ratio, 2 hrs at 30° C.
# Procedure, shortened: as §1
# BCL-2 = assay: In vitro transcription-translation (IVTT) assay, BCL-2 reporter; details: HeLa S3 lysate, sfGFP/mCherry ratio, 2 hrs at 30° C.
# From the text: All reporter constructs have been cloned into the pT7CFE1-CHis plasmid (ThermoFisher #88860) using Gibson assembly procedures (NEB #E2611L). The parental pT7CFE1-CHis plasmid contains an EMCV IRES at the 5′UTR for translation initiation, a multiple-cloning site (MCS) for gene insertion, an optional C-terminal His-epitope tag, and polyA sequence in the 3′UTR to regulate mRNA stability. All reporters are designed to be inserted at the MCS to include a red fluorescent protein (mCherry), P2A self-cleaving peptide which releases the preceding mCherry protein product, and a fusion open reading frame containing a 3×FLAG epitope, a peptide sequence of interest (TEST), and green fluorescent protein (sfGFP).
# Construct Plasmid Preparation: All plasmids are isolated from MACH1 cells (ThermoFisher) grown overnight in ampicillin-containing luria broth, and purified using ZymoPure Express Plasmid Midiprep Kit (Zymo Research). Constructs are sequenced verified and diluted to a working concentration of 110 ng/μL.
# HeLa S3 Lysate Preparation: HeLa S3 cell pellets are acquired from Ipracell/Ipratech (Belgium) and shipped as 4 mL frozen cell pellets on dry ice for storage at −80° C. until use. The procedure for lysate preparation is as follows. Prepare 1× Lysis Buffer, cold and stored on ice:
# as §2
# In vitro transcription-translation assay setup: Each assay includes a master mix containing lysate and shared components, a 96-well plate containing compound titrations for testing, a 96-well DNA plate with reporter constructs to be tested, 96-well skirted PCR plates, and 96-well flat-bottom, black, fluorescent assay plates. […]
# ALK = assay: In vitro transcription-translation (IVTT) assay, ALK reporter; details: HeLa S3 lysate, sfGFP/mCherry ratio, 2 hrs at 30° C.
# Procedure, shortened: as §1
# [1] = IVTT assay, MYC reporter, normalized sfGFP/mCherry ratio, half-log dilutions 30 μM-0.1 μM
SMILES,IC50 (CCNE1),IC50 (CCNTB1),IC50 (CCND1; IVTT),IC50 (MYC; sfGFP/mCherry ratio),IC50 (KRAS G12D),IC50 (MCL-1),IC50 (BCL-2),IC50 (ALK),IC50 (MYC; [1]),IC50 (CCND1; sfGFP/mCherry ratio)
"COc1ccc(C[C@H]2NC[C@H](O)[C@H]2OC(=O)NCc2ccc3[nH]cnc3c2)cc1 [V188150, (2R,3S,4S)-4-hydroxy-2-[(4-methoxyphenyl)methyl]pyrrolidin-3-yl N-(JH-1,3-benzodiazol-5-ylmethyl)carbamate]",< 10 µM,< 10 µM,< 10 µM,–,–,–,–,–,< 10 µM,–
"COc1ccc(C[C@H]2NC[C@H](O)[C@H]2OC(=O)NCc2ccc(-c3ncc[nH]3)cc2)cc1 [V188144, (2R,3S,4S)-4-hydroxy-2-[(4-methoxyphenyl)methyl]pyrrolidin-3-yl N-{[4-(1H-imidazol-2-yl)phenyl]methyl}carbamate]",< 10 µM,< 10 µM,< 10 µM,–,–,–,–,–,< 10 µM,–
"COc1ccc(C[C@H]2NC[C@H](O)[C@H]2OC(=O)NCCn2ccnc2[N+](=O)[O-])cc1 [V188085, (2R,3S,4S)-4-hydroxy-2-[(4-methoxyphenyl)methyl]pyrrolidin-3-yl N-[2-(2-nitroimidazol-1-yl)ethyl]carbamate]",< 10 µM,< 10 µM,20 to 30 µM,–,–,–,–,–,10 to 20 µM,–
"COc1ccc(C[C@H]2NC[C@H](O)[C@H]2OC(=O)NCCNc2cc[nH]n2)cc1 [V187944, (2R,3S,4S)-4-hydroxy-2-[(4-methoxyphenyl)methyl]pyrrolidin-3-yl N-[2-(1H-pyrazol-3-ylamino)ethyl]carbamate]",10 to 20 µM,< 10 µM,20 to 30 µM,–,–,–,–,–,10 to 20 µM,–
"COc1ccc(C[C@H]2NC[C@H](O)[C@H]2OC(=O)NCCO[C@@H]2CCNC2)cc1 [V188071, (2R,3S,4S)-4-hydroxy-2-[(4-methoxyphenyl)methyl]pyrrolidin-3-yl N-{2-[(3R)-pyrrolidin-3-yloxy]ethyl}carbamate]",< 10 µM,< 10 µM,10 to 20 µM,–,–,–,–,–,10 to 20 µM,–
"COc1ccc(C[C@H]2NC[C@H](O)[C@H]2OC(=O)NCCc2cc[nH]n2)cc1 [V187698, (2R,3S,4S)-4-hydroxy-2-[(4-methoxyphenyl)methyl]pyrrolidin-3-yl N-[2-(1H-pyrazol-3-yl)ethyl]carbamate; trifluoroacetic acid]",–,–,–,< 10 µM,< 10 µM,< 10 µM,< 10 µM,< 10 µM,–,< 10 µM
"COc1ccc(C[C@H]2NC[C@H](O)[C@H]2OC(=O)NCCc2cnc[nH]2)cc1 [V187593, (2R,3S,4S)-4-hydroxy-2-[(4-methoxyphenyl)methyl]pyrrolidin-3-yl N-[2-(3H-imidazol-4-yl)ethyl]carbamate]",–,–,–,< 10 µM,< 10 µM,< 10 µM,< 10 µM,< 10 µM,–,< 10 µM
"COc1ccc(C[C@H]2NC[C@H](O)[C@H]2OC(=O)NCCc2ccncc2)cc1 [V187807, (2R,3S,4S)-4-hydroxy-2-[(4-methoxyphenyl)methyl]pyrrolidin-3-yl N-[2-(pyridin-4-yl)ethyl]carbamate]",–,–,–,< 10 µM,< 10 µM,< 10 µM,< 10 µM,< 10 µM,–,–
"COc1ccc(C[C@H]2NC[C@H](O)[C@H]2OC(=O)NCc2ccn[nH]2)cc1 [V187321, (2R,3S,4S)-4-hydroxy-2-[(4-methoxyphenyl)methyl]pyrrolidin-3-yl N-(2H-pyrazol-3-ylmethyl)carbamate; trifluoroacetic acid]",–,–,–,< 10 µM,< 10 µM,< 10 µM,< 10 µM,< 10 µM,–,< 10 µM
"COc1ccc(C[C@H]2NC[C@H](O)[C@H]2OC(=O)NCc2c[nH]cn2)cc1 [V187192, (2R,3S,4S)-4-hydroxy-2-[(4-methoxyphenyl)methyl]pyrrolidin-3-yl N-(1H-imidazol-4-ylmethyl)carbamate]",–,–,–,< 10 µM,< 10 µM,< 10 µM,< 10 µM,< 10 µM,–,< 10 µM

# Now from value to compound, other results behind:
IC50 (CCNE1),IC50 (CCNTB1),IC50 (CCND1; IVTT),IC50 (MYC; sfGFP/mCherry ratio),IC50 (KRAS G12D),IC50 (MCL-1),IC50 (BCL-2),IC50 (ALK),SMILES,IC50 (MYC; [1]),IC50 (CCND1; sfGFP/mCherry ratio)
< 10 µM,< 10 µM,20 to 30 µM,–,–,–,–,–,"O=C(NCc1cc(F)cc(F)c1)O[C@@H]1[C@@H](O)CN[C@@H]1Cc1ccc(Cl)cc1 [V188272, (2R,3S,4S)-2-[(4-chlorophenyl)methyl]-4-hydroxypyrrolidin-3-yl N-[(3,5-difluorophenyl)methyl]carbamate]",10 to 20 µM,–
10 to 20 µM,< 10 µM,> 30 µM,–,–,–,–,–,"COc1ccc(C[C@H]2NC[C@H](O)[C@H]2OC(=O)NCC23CNC(C2)C3)cc1 [V188152, (2R,3S,4S)-4-hydroxy-2-[(4-methoxyphenyl)methyl]pyrrolidin-3-yl N-{2-azabicyclo[2.1.1]hexan-4-ylmethyl}carbamate]",–,–
< 10 µM,< 10 µM,< 10 µM,–,–,–,–,–,"NS(=O)(=O)c1ccc(CNC(=O)O[C@@H]2[C@@H](O)CN[C@@H]2Cc2ccc(Cl)cc2)cc1 [V188291, (2R,3S,4S)-2-[(4-chlorophenyl)methyl]-4-hydroxypyrrolidin-3-yl N-[(4-sulfamoylphenyl)methyl]carbamate]",10 to 20 µM,–
< 10 µM,< 10 µM,< 10 µM,–,–,–,–,–,"CNC(=O)c1ccc(CNC(=O)O[C@@H]2[C@@H](O)CN[C@@H]2Cc2ccc(OC)cc2)cc1 [V188305, (2R,3S,4S)-4-hydroxy-2-[(4-methoxyphenyl)methyl]pyrrolidin-3-yl N-{[4-(methylcarbamoyl)phenyl]methyl}carbamate]",< 10 µM,–
< 10 µM,< 10 µM,10 to 20 µM,–,–,–,–,–,"O=C(NCc1cccc(F)c1)O[C@@H]1[C@@H](O)CN[C@@H]1Cc1ccc(Cl)cc1 [V188270, (2R,3S,4S)-2-[(4-chlorophenyl)methyl]-4-hydroxypyrrolidin-3-yl N-[(3-fluorophenyl)methyl]carbamate]",< 10 µM,–

# Source: patent US20250129021A1, “SMALL MOLECULE PROTEIN SYNTHESIS MODULATORS” (Interdict Bio, Inc., priority 2023, published 2025)
